Assay results as given in patent publication US20130045952A1, “ABA Receptor Agonists for Increased Plant Stress Resistance” (Van Andel Research Institute, priority 2011, published 2013).

Experiments:
Type in all cases: biochemical
[1] = molecular target: T1, ABI1 (Arabidopsis thaliana, UniProt O49686+P49597); test: PP2C phosphatase activity assay, ABI1; settings: 200 nM PP2C; SnRK2.6 phosphopeptide substrate; None = 100
T1 construct: ABI1 (residues 117-434) and ABI2 (residues 101-423) were expressed as H6Sumo fusion proteins; H6Sumo (N); made in house; host or cells: E. coli BL21
T1 sequence (P49597 117-434 limits assumed): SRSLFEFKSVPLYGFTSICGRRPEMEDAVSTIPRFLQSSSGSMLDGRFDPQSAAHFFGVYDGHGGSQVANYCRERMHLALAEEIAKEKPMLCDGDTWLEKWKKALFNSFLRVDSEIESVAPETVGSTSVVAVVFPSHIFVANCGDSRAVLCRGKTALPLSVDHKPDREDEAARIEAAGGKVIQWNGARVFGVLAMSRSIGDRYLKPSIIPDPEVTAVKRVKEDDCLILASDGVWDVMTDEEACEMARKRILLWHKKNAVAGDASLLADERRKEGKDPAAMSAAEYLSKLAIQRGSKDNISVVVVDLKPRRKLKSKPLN
T1 sequence (O49686 1-191): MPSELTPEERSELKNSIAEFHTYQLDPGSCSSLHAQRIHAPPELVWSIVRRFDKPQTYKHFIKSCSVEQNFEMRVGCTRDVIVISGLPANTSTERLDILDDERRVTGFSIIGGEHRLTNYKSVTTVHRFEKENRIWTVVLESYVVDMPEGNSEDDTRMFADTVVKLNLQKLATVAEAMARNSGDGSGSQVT
Description: (§1) Mutant proteins were expressed as H6GST-fusion proteins and purified by glutathione sepharose chromatography. Protein-protein interactions were determined by luminescence proximity AlphaScreen assay. Biotinylated PP2C proteins for the luminescence proximity assay were generated by in vivo biotinylation of avitag-PP2C fusion proteins. PP2C phosphatase activity was measured by phosphate release from a SnRK2.6 phosphoprotein.
(§2) PP2Cs and PYR/PYL proteins were pre-incubated at the indicated concentrations in 50 mM imidazole, pH 7.2, 5 mM MgCl2, 0.1% β-mercaptoethanol and 0.5 mg/ml BSA for 30 min at room temperature. Reactions were started by addition of 100 μM of a phosphopeptide corresponding to amino acids 170-180 of SnRK2.6 (HSQPK^pSTVGTP). This peptide is phosphorylated at a single residue corresponding to Ser175 in SnRK2.6, whose phosphorylation is required for SnRK2.6 kinase activity^32. Phosphate release from ^pS175 from the phosphopeptide was determined by colorimetric assay (BioVision).

[2] = molecular target: T2, HAB1 (Arabidopsis thaliana, UniProt O49686+Q9CAJ0); test: PP2C phosphatase activity assay, HAB1; settings: 200 nM PP2C; SnRK2.6 phosphopeptide substrate; None = 100
T2 construct: HAB1 (residues 172-511) were prepared as recombinant proteins in E. coli; H6GST or H6Sumo; made in house; host or cells: E. coli
T2 sequence (Q9CAJ0 172-511 limits assumed): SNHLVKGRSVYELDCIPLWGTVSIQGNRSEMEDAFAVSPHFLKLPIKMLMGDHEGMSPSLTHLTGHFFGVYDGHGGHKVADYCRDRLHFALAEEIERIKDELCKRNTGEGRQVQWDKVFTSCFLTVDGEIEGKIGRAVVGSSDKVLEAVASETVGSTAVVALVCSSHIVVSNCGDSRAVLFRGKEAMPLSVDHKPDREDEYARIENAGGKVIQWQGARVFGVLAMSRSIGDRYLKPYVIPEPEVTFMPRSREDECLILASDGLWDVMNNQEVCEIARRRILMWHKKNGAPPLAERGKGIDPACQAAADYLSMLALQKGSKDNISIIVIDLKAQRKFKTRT
T2 sequence (O49686 1-191): T1 sequence (O49686 1-191)
Description: as §1, §2

[3] = molecular target: T3, His6-PYR1 / biotin-HAB1 (Arabidopsis thaliana, UniProt O49686); test: AlphaScreen dose response, PYR1-HAB1 interaction; settings: 100 nM His6-PYR1, 100 nM biotin-PP2C, 0-100 μM agonist; from dose response curves
T3 construct: made in house; host or cells: E. coli (stated for the PP2Cs; not expressly for PYR1)
T3 sequence (O49686 1-191): T1 sequence (O49686 1-191)
T3 sequence (Q9CAJ0 172-511 partner limits assumed): T2 sequence (Q9CAJ0 172-511 limits assumed)
Description: (§3) Interactions between PYR/PYL and PP2Cs were assessed by luminescence-proximity AlphaScreen technology (Perkin Elmer). Briefly, biotinylated PP2Cs were attached to streptavidin-coated donor beads, and H6-tagged PYR/PYL receptors were attached to nickel-chelated acceptor beads. The donor and acceptor beads were brought into proximity by the interactions between PYR/PYLs and PP2Cs, which were measured with and without ligands. When excited by a laser beam of 680 nm, the donor beam emits singlet oxygen that activates thioxene derivatives in the acceptor beads, which releases photons of 520-620 nm as the binding signal. The experiments were conducted with 100 nM of PP2Cs and PYR/PYL proteins in the presence of 5 ug/ml donor and acceptor beads in a buffer of 50 mM MOPS, pH7.4, 50 mM NaF, […], and 0.1 mg/ml bovine serum albumin. The results were based on an average of three experiments with standard errors typically less than 10% of the measurements.
The results shown in Table 5b were calculated from the dose response curves of the dependence of the interaction between 100 nM His6-PYR1 and 100 nM biotin-PP2C on the presence of 0-100 μM agonists determined by AlphaScreen luminescence proximity assay. Key (EC50 in μM): ++++=<5.0 μM; +++=5-10 μM; ++=10-20 μM; and +=>20-60 μM.

[4] = molecular target: T4, His6-PYL3 / biotin-PP2C (Arabidopsis thaliana, UniProt Q9SSM7); test: AlphaScreen luminescence proximity assay, PYL3-PP2C interaction; settings: for Stimulation of the interaction between PYL3 and PP2C (binding signal): 100 nM His6-PYL3, 100 nM biotin-PP2C, 100 μM agonist, normalized against a pyrabactin control
T4 construct: made in house; host or cells: not expressly stated for PYL3
T4 sequence (Q9SSM7 1-209): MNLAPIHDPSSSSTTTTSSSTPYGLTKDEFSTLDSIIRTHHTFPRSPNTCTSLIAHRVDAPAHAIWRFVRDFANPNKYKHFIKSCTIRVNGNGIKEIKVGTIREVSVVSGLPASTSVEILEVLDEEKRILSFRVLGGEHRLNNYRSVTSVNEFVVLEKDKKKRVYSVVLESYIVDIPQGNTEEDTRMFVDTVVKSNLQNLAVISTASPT
Description: as §1, §3
(§4) Values were determined in different experiments and normalized against a pyrabactin control. Blank spaces mean no experimental data is available. Key (photon counts (binding signal units) in Alphascreen luminescence proximity assay): “+++ is >75,000; ++ is 25,000−75,000; + is <25,000.

[5] = molecular target: T5, His6-PYL1 / biotin-PP2C (Arabidopsis thaliana, UniProt Q8VZS8); test: AlphaScreen luminescence proximity assay, PYL1-PP2C interaction; settings: for Stimulation of the interaction between PYL1 and PP2C (binding signal): 100 nM His6-PYL1, 100 nM biotin-PP2C, 100 μM agonist, normalized against a pyrabactin control
T5 construct: PYL1 (residues 36-211), PYL2 (residues 14-188), and HAB1 (residues 172-511) were prepared as recombinant proteins in E. coli; made in house; host or cells: E. coli
T5 sequence (Q8VZS8 36-211): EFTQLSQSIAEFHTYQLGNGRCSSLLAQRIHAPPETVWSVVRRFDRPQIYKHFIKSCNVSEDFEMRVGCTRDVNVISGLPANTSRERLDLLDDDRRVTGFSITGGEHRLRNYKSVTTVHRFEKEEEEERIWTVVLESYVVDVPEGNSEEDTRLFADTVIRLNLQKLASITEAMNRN
Description: as §1, §3, §4

[6] = purified proteins in vitro, HAB1, ABI1, ABI2

SMILES	% Phosphatase Activity ABI1 [1]	% Phosphatase Activity HAB1 [2]	EC50 [3]	Stimulation of the interaction between PYL3 and PP2C (binding signal) [4]	Stimulation of the interaction between PYL1 and PP2C (binding signal) [5]	Promotion of PYL3 interaction with the three PP2Cs [4, 6]	Promotion of PYL1 interaction with the three PP2Cs [5, 6]	Agonist activity in wildtype PYL1 ([5]; wildtype PYL1)
O=C1Nc2ccc(S(=O)(=O)NCc3ccccn3)c3cccc1c23 [Compound 1]	3.3 ± 1.0%	16.6 ± 2.0%	20 to 60 µM	+ (+ is <25,000)	+ (+ is <25,000)	–	–	–
CCOC(=O)CNS(=O)(=O)c1ccc2c3c(cccc13)C(=O)N2CC [Compound 2]	4.3 ± 0.8%	6.1 ± 1.9%	5 to 10 µM	+ (+ is <25,000)	+ (+ is <25,000)	–	–	–
CCN1C(=O)c2cccc3c(S(=O)(=O)NC[C@@H]4CCCO4)ccc1c23 [Compound 11]	4.7 ± 1.0%	8.8 ± 0.3%	5 to 10 µM	++ (++ is 25,000−75,000)	+ (+ is <25,000)	–	–	–
O=S(=O)(NCc1ccccn1)c1ccc(Br)c2ccccc12 [Pyrabactin, pyrabactin]	2.8 ± 0.2%	12.6 ± 0.3%	< 5 µM	–	–	promoted interaction	promoted interaction	very weak
